In article PMC9392260 (Journal of Inflammation Research, 2022):
Like-named read-outs stand apart in the source and are kept apart here. Blank lines part the entries; values can stand above or below the compound they belong to.

How the values were obtained:
Type in all cases: biochemical
[1] = target: ACE2 (Homo sapiens, UniProt Q9BYF1); experiment: fluorescent ACE2 inhibitor screening kit
[2] = target: T1, COX-2 (Homo sapiens, UniProt P35354); experiment: fluorescent COX-2 inhibitor screening kit
T1 sequence (P35354 18-604): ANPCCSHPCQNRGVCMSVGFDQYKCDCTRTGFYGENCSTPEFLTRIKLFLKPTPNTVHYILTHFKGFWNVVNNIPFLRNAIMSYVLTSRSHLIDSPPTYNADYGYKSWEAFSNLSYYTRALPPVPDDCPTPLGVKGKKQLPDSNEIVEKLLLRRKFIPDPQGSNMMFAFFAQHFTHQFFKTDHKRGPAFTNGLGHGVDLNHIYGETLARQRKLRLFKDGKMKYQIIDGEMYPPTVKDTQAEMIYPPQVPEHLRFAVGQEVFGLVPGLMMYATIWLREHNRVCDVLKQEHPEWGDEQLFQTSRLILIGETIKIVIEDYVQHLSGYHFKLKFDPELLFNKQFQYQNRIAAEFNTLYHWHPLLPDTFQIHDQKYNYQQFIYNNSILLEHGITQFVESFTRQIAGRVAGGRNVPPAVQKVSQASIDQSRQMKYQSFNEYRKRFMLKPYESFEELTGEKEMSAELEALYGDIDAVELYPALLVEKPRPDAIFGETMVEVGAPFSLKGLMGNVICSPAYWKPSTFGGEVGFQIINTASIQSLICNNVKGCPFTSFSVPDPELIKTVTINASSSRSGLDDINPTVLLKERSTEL

[3] = target: T1, COX-2; experiment: fluorescent COX-2 inhibitor screening kit; remark: listed apart in the source

Sequence of ACE2 (Q9BYF1 18-805): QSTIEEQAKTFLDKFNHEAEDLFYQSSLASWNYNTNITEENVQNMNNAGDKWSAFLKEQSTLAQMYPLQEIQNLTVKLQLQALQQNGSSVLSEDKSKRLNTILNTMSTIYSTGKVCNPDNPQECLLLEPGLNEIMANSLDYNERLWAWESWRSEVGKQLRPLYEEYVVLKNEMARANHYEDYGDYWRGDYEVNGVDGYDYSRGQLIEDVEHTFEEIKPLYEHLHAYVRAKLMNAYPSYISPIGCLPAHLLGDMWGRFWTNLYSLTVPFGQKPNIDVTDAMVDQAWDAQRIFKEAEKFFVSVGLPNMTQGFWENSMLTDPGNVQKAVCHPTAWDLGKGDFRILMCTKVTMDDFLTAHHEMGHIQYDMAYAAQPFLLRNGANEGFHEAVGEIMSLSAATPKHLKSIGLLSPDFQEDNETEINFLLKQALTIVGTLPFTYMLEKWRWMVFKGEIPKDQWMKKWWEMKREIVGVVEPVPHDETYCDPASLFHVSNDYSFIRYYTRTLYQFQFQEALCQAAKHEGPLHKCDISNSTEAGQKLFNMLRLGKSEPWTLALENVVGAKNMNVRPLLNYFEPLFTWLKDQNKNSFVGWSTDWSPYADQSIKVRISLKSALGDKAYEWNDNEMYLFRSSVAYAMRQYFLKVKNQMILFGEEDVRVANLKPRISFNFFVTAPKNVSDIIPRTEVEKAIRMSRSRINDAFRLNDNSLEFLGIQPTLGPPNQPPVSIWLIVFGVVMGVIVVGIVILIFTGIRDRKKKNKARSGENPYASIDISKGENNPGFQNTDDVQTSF

- IC50 [1]: 135 ± 6.54 µM
SMILES: O=c1c(O[C@@H]2O[C@H](CO)[C@@H](O)[C@H](O)[C@H]2O)c(-c2ccc(O)c(O)c2)oc2cc(O)cc(O)c12 [compound 5, Quercetin 3-O-glucoside]

- IC50 [2]: 0.36 ± 0.02 µM
SMILES: O=c1c(O)c(-c2ccc(O)cc2)oc2cc(O)cc(O)c12 [compound 11, Kaempferol]

SMILES: COc1cc([C@@H]2c3cc4c(cc3[C@H](O)[C@H]3COC(=O)[C@H]23)OCO4)cc(OC)c1OC [compound 12, Podophyllotoxin]
- IC50 [3]: 10.5 ± 0.61 µM
